# Laboratory results reported in patent US11389415B2, “Methods of regulating cannabinoid receptor activity-related disorders and diseases” (The United States of America as represented by the …, priority 2012, dated 2022).
# Key:
# U87MG cells = experiment: [3H]-Thymidine incorporation in U87MG cells; type: cell-based, human; conditions: compound alone
# Procedure: Maintenance and Treatment of Cell Lines. Human HepG2 hepatocarcinoma cells and human U87MG glioma cells (ATCC, Manassas, Va.) were maintained in EMEM medium supplemented with 1% L-glutamine, 1% sodium pyruvate, 1% penicillin/streptomycin, and 10% FBS (Hyclone, Logan, Utah). The human 1321N1 astrocytoma cells (European Collection of Cell Cultures, Sigma-Aldrich) were cultured in Dulbecco's modified Eagle's medium supplemented with 10% FBS and penicillin/streptomycin. All cell lines were cultured at 37° C. in 5% CO2, and the medium was replaced every 2-3 days.
# Cells were seeded in 12-well plates at approximately 50,000 cells/well and incubated at 37° C. After 24 hours, the wells were rinsed with PBS and replaced with serum-free medium containing the appropriate concentration of the test compounds. After another 24-hour incubation at 37° C., 1 μCi of [^3H]-thymidine was added to each well and incubated at 37° C. for 16 hours. [^3H]-Thymidine incorporation into DNA was monitored after the cells were washed twice with PBS and then lysed in 600 μL of 0.1N NaOH for 30 minutes with shaking. The lysate was then mixed with 3 mL of liquid scintillation cocktail (Beckman Coulter, Inc., Brea, Calif.), and radioactivity was measured by liquid scintillation counting using Beckman Coulter LS6000IC Scintillation Counter. Data are shown as CPM incorporated compared to the control cells.
# [1] = tested on: Sox4, Olig1, Galnt3, Cdkn3, Ccna2, Bub1b mRNA; experiment: qRT-PCR of selected genes in C6 xenograft tumors; type: in vivo, mouse; conditions: MNF-treated mice
# Procedure: Total RNA extraction, cDNA synthesis and qRT-PCR analysis. Total RNA (including the DNase treatment step) was isolated from frozen tumor tissues using the RNeasy mini kit (Qiagen, Valencia, Calif.). RNA concentration and quality was measured using the NanoDrop spectrophotometer (NanoDrop Technologies, Wilmington, Del.). Subsequently, 2 μg total RNA was reverse-transcribed to cDNA using the qSCRIPT™ cDNA SuperMix (Quanta Biosciences, Gaithersburg, Md.). Quantitative real-time PCR (qRT-PCR) reactions were performed to validate the expression of 6 genes that were selected from the microarray analysis. The reactions were carried out with SYBR® Green PCR master mix on an ABI Prism 7300 sequence detection system (Applied Biosystems) using commercially available target probes for Sox4, Olig1, Galnt3, Cdkn3, Ccna2, and Bub1b (PrimeTime qPCR Assays and Primers, IDT DNA Technologies, Coralville, Iowa). The data was analyzed using the 2-ΔΔCt method with Gapdh and vehicle-treated tumors as internal controls. Controls consisting of reaction mixture without cDNA were negative in all runs.
smiles,measurement,setting,value
"COc1ccc(C[C@@H](C)NC[C@H](O)c2cc(O)cc(O)c2)c2ccccc12 [(R,R′)-MNF, (R,R′)-4′-methoxy-1-naphthylfenoterol]",effect on cellular proliferation,U87MG cells,potent inhibition of cellular proliferation
same,mRNA expression by quantitative RT-PCR compared to control,[1],"decreased the expression of Bub1b, Cdkn3 Ccna2, Olig1, Sox4, and Galnt3"
